Results: ChEMBL document CHEMBL3885861, “Open TG-GATES”

Organism: Rattus norvegicus
Test: Open TG-GATES - Regimen: Daily Repeat
Format: toxicity, organism-based, Sprague-Dawley
Design: regimen Daily Repeat, gender Male, age 6 weeks
Settings: in vivo, po, route gavage; for APTT / Bas / Eos / Fbg / Hb / Ht / Lym / MCH / MCHC / MCV / Mono / Neu / PT / Plat / RBC / Ret / WBC: tissue Blood; for KIDNEY_L / KIDNEY_R / KIDNEY_TOTAL: tissue Kidney; for LIVER: tissue Liver; for A/G / ALP / ALT / AST / BUN / CRE / Ca / Cl / DBIL / GLC / IP / K / LDH / Na / PL / RALB / TBIL / TC / TG / TP / gamma-GTP: tissue Plasma
[1] = 0 mg/kg, 72 h, dose level Control, time 3 day
[2] = 0 mg/kg, […], dose level Control, time 7 day
[3] = 0 mg/kg, […], dose level Control, time 14 day
[4] = 0 mg/kg, […], dose level Control, time 28 day
[5] = 3 mg/kg, 72 h, dose level Low, time 3 day
[6] = 3 mg/kg, […], dose level Low, time 7 day
[7] = 3 mg/kg, […], dose level Low, time 14 day
[8] = 3 mg/kg, […], dose level Low, time 28 day

## CN(C)CCC(c1ccc(Cl)cc1)c1ccccn1 (centres undefined) [CHLORPHENIRAMINE]
[1]
  TERMINAL_BW: 224.6 g
  APTT: 23.2 s
  Bas: 0%
  Eos: 1.2%
  Fbg: 295.2 mg/dL
  Hb: 13.4 g/dL
  Ht: 41.7%
  Lym: 77.6%
  MCH: 20.6 pg
  MCHC: 32.1%
  MCV: 64.2 fL
  Mono: 2.8%
  Neu: 17.4%
  PT: 14.5 s
  Plat: 127.5 x10_4/uL
  RBC: 650.8 x10_4/ul
  Ret: 6.9%
  WBC: 76.4 x10_2/uL
  KIDNEY_L: 0.9 g
  KIDNEY_R: 0.9 g
  KIDNEY_TOTAL: 1.9 g
  LIVER: 10.1 g
  A/G: 0.9
  ALP: 1824 IU/L
  ALT: 44.2 IU/L
  AST: 69.4 IU/L
  BUN: 14.6 mg/dL
  CRE: 0.2 mg/dL
  Ca: 10.5 mg/dL
  Cl: 107.2 meq/L
  DBIL: 0.014 mg/dL
  GLC: 182.4 mg/dL
  IP: 7.7 mg/dL
  K: 4.5 meq/L
  LDH: 109.4 IU/L
  Na: 142.2 meq/L
  PL: 151.6 mg/dL
  RALB: 2.7 g/dL
  TBIL: 0.034 mg/dL
  TC: 79 mg/dL
  TG: 87.8 mg/dL
  TP: 5.8 g/dL
  gamma-GTP: 1.4 IU/L
[2]
  TERMINAL_BW: 265.1 g
  APTT: 18.7 s
  Bas: 0%
  Eos: 0.8%
  Fbg: 323.4 mg/dL
  Hb: 14 g/dL
  Ht: 43.3%
  Lym: 78.6%
  MCH: 20.5 pg
  MCHC: 32.4%
  MCV: 63.3 fL
  Mono: 2.8%
  Neu: 16.6%
  PT: 13.9 s
  Plat: 113.9 x10_4/uL
  RBC: 684.8 x10_4/ul
  Ret: 5.9%
  WBC: 83.1 x10_2/uL
  KIDNEY_L: 1 g
  KIDNEY_R: 1 g
  KIDNEY_TOTAL: 2.1 g
  LIVER: 12.2 g
  A/G: 0.8
  ALP: 1518.2 IU/L
  ALT: 43.2 IU/L
  AST: 65.8 IU/L
  BUN: 15.4 mg/dL
  CRE: 0.2 mg/dL
  Ca: 11.6 mg/dL
  Cl: 104.8 meq/L
  DBIL: 0.018 mg/dL
  GLC: 193.8 mg/dL
  IP: 8.1 mg/dL
  K: 4.2 meq/L
  LDH: 90.8 IU/L
  Na: 143.2 meq/L
  PL: 166.4 mg/dL
  RALB: 2.8 g/dL
  TBIL: 0.034 mg/dL
  TC: 86.6 mg/dL
  TG: 139.6 mg/dL
  TP: 6.1 g/dL
  gamma-GTP: 1 IU/L
[3]
  TERMINAL_BW: 314.1 g
  APTT: 20.3 s
  Bas: 0.4%
  Eos: 1%
  Fbg: 308.2 mg/dL
  Hb: 14.8 g/dL
  Ht: 45.2%
  Lym: 76.8%
  MCH: 20.4 pg
  MCHC: 32.7%
  MCV: 62.2 fL
  Mono: 2.2%
  Neu: 18.8%
  PT: 14.5 s
  Plat: 111 x10_4/uL
  RBC: 727.2 x10_4/ul
  Ret: 3.8%
  WBC: 90.4 x10_2/uL
  KIDNEY_L: 1.1 g
  KIDNEY_R: 1.1 g
  KIDNEY_TOTAL: 2.2 g
  LIVER: 12.9 g
  A/G: 0.8
  ALP: 1632.2 IU/L
  ALT: 38.2 IU/L
  AST: 66.4 IU/L
  BUN: 15.6 mg/dL
  CRE: 0.2 mg/dL
  Ca: 10.9 mg/dL
  Cl: 106.4 meq/L
  DBIL: 0.016 mg/dL
  GLC: 187.2 mg/dL
  IP: 6.9 mg/dL
  K: 4.2 meq/L
  LDH: 77 IU/L
  Na: 143.4 meq/L
  PL: 153.4 mg/dL
  RALB: 2.8 g/dL
  TBIL: 0.038 mg/dL
  TC: 72.6 mg/dL
  TG: 126 mg/dL
  TP: 6.1 g/dL
  gamma-GTP: 1 IU/L
[4]
  TERMINAL_BW: 409.3 g
  APTT: 17.8 s
  Bas: 0.2%
  Eos: 1.2%
  Fbg: 280.8 mg/dL
  Hb: 15.4 g/dL
  Ht: 45.7%
  Lym: 76.4%
  MCH: 18.9 pg
  MCHC: 33.7%
  MCV: 56.2 fL
  Mono: 2%
  Neu: 19.8%
  PT: 14.5 s
  Plat: 115.9 x10_4/uL
  RBC: 813.8 x10_4/ul
  Ret: 2.5%
  WBC: 96.5 x10_2/uL
  KIDNEY_L: 1.4 g
  KIDNEY_R: 1.4 g
  KIDNEY_TOTAL: 2.8 g
  LIVER: 17.3 g
  A/G: 0.8
  ALP: 1089.8 IU/L
  ALT: 37.2 IU/L
  AST: 60.4 IU/L
  BUN: 17.4 mg/dL
  CRE: 0.2 mg/dL
  Ca: 10.6 mg/dL
  Cl: 106.8 meq/L
  DBIL: 0.016 mg/dL
  GLC: 186.2 mg/dL
  IP: 6.3 mg/dL
  K: 4.2 meq/L
  LDH: 77.4 IU/L
  Na: 144.8 meq/L
  PL: 168.4 mg/dL
  RALB: 2.9 g/dL
  TBIL: 0.026 mg/dL
  TC: 79.6 mg/dL
  TG: 174 mg/dL
  TP: 6.4 g/dL
  gamma-GTP: 1 IU/L
[5]
  TERMINAL_BW: 233.5 g
  APTT: 18.3 s
  Bas: 0.2%
  Eos: 1%
  Fbg: 299.4 mg/dL
  Hb: 13.3 g/dL
  Ht: 41.5%
  Lym: 80.4%
  MCH: 21 pg
  MCHC: 32.1%
  MCV: 65.5 fL
  Mono: 2.8%
  Neu: 15.2%
  PT: 14.5 s
  Plat: 124 x10_4/uL
  RBC: 634 x10_4/ul
  Ret: 7.1%
  WBC: 89 x10_2/uL
  KIDNEY_L: 1 g
  KIDNEY_R: 0.9 g
  KIDNEY_TOTAL: 1.9 g
  LIVER: 11.3 g
  A/G: 0.8
  ALP: 1834.4 IU/L
  ALT: 44.4 IU/L
  AST: 66.4 IU/L
  BUN: 16.2 mg/dL
  CRE: 0.2 mg/dL
  Ca: 10.6 mg/dL
  Cl: 106.2 meq/L
  DBIL: 0.018 mg/dL
  GLC: 183.6 mg/dL
  IP: 8.3 mg/dL
  K: 4.3 meq/L
  LDH: 94.6 IU/L
  Na: 142 meq/L
  PL: 162.6 mg/dL
  RALB: 2.7 g/dL
  TBIL: 0.04 mg/dL
  TC: 86.6 mg/dL
  TG: 109.8 mg/dL
  TP: 5.8 g/dL
  gamma-GTP: 1 IU/L
[6]
  TERMINAL_BW: 265.1 g
  APTT: 19.8 s
  Bas: 0%
  Eos: 1%
  Fbg: 289.8 mg/dL
  Hb: 13.7 g/dL
  Ht: 41.7%
  Lym: 77.2%
  MCH: 20.6 pg
  MCHC: 32.8%
  MCV: 62.8 fL
  Mono: 2.6%
  Neu: 18.4%
  PT: 14 s
  Plat: 116 x10_4/uL
  RBC: 665 x10_4/ul
  Ret: 6%
  WBC: 80.2 x10_2/uL
  KIDNEY_L: 1.1 g
  KIDNEY_R: 1.1 g
  KIDNEY_TOTAL: 2.2 g
  LIVER: 12.6 g
  A/G: 0.8
  ALP: 1694.2 IU/L
  ALT: 41.6 IU/L
  AST: 68 IU/L
  BUN: 15.6 mg/dL
  CRE: 0.2 mg/dL
  Ca: 11.4 mg/dL
  Cl: 106.2 meq/L
  DBIL: 0.014 mg/dL
  GLC: 194 mg/dL
  IP: 7.7 mg/dL
  K: 4.2 meq/L
  LDH: 93 IU/L
  Na: 144 meq/L
  PL: 159.8 mg/dL
  RALB: 2.7 g/dL
  TBIL: 0.032 mg/dL
  TC: 77.8 mg/dL
  TG: 135 mg/dL
  TP: 6 g/dL
  gamma-GTP: 1 IU/L
[7]
  TERMINAL_BW: 330.4 g
  APTT: 18.1 s
  Bas: 0.2%
  Eos: 1%
  Fbg: 299 mg/dL
  Hb: 14.4 g/dL
  Ht: 43.5%
  Lym: 80.2%
  MCH: 20.5 pg
  MCHC: 33.1%
  MCV: 61.9 fL
  Mono: 2.8%
  Neu: 15%
  PT: 14.4 s
  Plat: 119.7 x10_4/uL
  RBC: 703.8 x10_4/ul
  Ret: 4.6%
  WBC: 85 x10_2/uL
  KIDNEY_L: 1.2 g
  KIDNEY_R: 1.2 g
  KIDNEY_TOTAL: 2.5 g
  LIVER: 14.8 g
  A/G: 0.8
  ALP: 1670 IU/L
  ALT: 39.2 IU/L
  AST: 64.2 IU/L
  BUN: 16.4 mg/dL
  CRE: 0.2 mg/dL
  Ca: 11.1 mg/dL
  Cl: 105.2 meq/L
  DBIL: 0.02 mg/dL
  GLC: 194 mg/dL
  IP: 7.7 mg/dL
  K: 4.1 meq/L
  LDH: 103.6 IU/L
  Na: 143.4 meq/L
  PL: 160.8 mg/dL
  RALB: 2.8 g/dL
  TBIL: 0.034 mg/dL
  TC: 77 mg/dL
  TG: 153 mg/dL
  TP: 6.1 g/dL
  gamma-GTP: 1 IU/L
[8]
  TERMINAL_BW: 400.2 g
  APTT: 17.7 s
  Bas: 0.4%
  Eos: 1%
  Fbg: 281.2 mg/dL
  Hb: 15.6 g/dL
  Ht: 46.5%
  Lym: 77.4%
  MCH: 19 pg
  MCHC: 33.5%
  MCV: 56.8 fL
  Mono: 2.4%
  Neu: 18%
  PT: 14.5 s
  Plat: 107.8 x10_4/uL
  RBC: 819.6 x10_4/ul
  Ret: 2.4%
  WBC: 82.8 x10_2/uL
  KIDNEY_L: 1.4 g
  KIDNEY_R: 1.4 g
  KIDNEY_TOTAL: 2.8 g
  LIVER: 15.6 g
  A/G: 0.8
  ALP: 1190.6 IU/L
  ALT: 38.6 IU/L
  AST: 63.8 IU/L
  BUN: 17 mg/dL
  CRE: 0.2 mg/dL
  Ca: 10.6 mg/dL
  Cl: 107.6 meq/L
  DBIL: 0.014 mg/dL
  GLC: 186.2 mg/dL
  IP: 6.2 mg/dL
  K: 4 meq/L
  LDH: 70.4 IU/L
  Na: 145 meq/L
  PL: 156.2 mg/dL
  RALB: 2.8 g/dL
  TBIL: 0.028 mg/dL
  TC: 75.2 mg/dL
  TG: 148 mg/dL
  TP: 6.4 g/dL
  gamma-GTP: 0.8 IU/L
